The record followed here is ChEMBL document CHEMBL1138067, “A new synthesis of sulfonamides by aminolysis of p-nitrophenylsulfonates yielding potent and selective adenosine A2B receptor antagonists” (J Med Chem, 2006).

In one assay the target is T1, Adenosine receptor A2b (Homo sapiens, UniProt P29275).
T1 sequence (P29275 whole entry): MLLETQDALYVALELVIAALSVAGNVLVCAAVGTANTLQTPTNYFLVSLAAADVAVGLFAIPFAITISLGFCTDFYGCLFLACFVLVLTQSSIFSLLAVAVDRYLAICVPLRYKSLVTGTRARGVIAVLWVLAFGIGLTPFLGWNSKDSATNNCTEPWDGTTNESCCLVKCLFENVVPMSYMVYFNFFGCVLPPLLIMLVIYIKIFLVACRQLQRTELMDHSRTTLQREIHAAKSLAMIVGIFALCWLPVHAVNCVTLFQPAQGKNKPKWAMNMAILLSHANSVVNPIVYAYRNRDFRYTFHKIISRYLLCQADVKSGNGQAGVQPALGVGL
The assay is described as follows: Displacement of [3H]PSB298 from human recombinant adenosine A2B receptor expressed in CHO cells. It is filed as cell-based.

The target in assay [1] is T2, Adenosine receptor A3 (Homo sapiens, UniProt P0DMS8).
T2 sequence (P0DMS8 whole entry): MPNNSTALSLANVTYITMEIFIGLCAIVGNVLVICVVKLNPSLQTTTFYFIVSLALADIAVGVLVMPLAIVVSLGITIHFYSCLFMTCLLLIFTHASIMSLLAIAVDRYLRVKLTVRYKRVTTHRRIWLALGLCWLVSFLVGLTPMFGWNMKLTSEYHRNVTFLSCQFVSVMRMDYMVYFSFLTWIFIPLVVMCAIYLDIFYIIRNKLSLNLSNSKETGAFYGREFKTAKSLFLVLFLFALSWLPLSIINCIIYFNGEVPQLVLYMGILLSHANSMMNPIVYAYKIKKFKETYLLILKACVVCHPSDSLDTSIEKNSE
Description: Displacement of [3H]PSB11 from human recombinant adenosine A3 receptor expressed in CHO cells. It is filed as cell-based. On the technique in general: Loss of bound radioactivity is the signal in a displacement assay; it reports binding, not function.

Assay [2] addresses Adenosine receptors; A1 & A2b (Homo sapiens) (UniProt P30542+P29275). Description: Selectivity for human adenosine A2B receptor over adenosine A1 receptor. Type of assay: protein assay.
Assay [3] addresses Adenosine receptors; A2b & A3 (Homo sapiens) (UniProt P29275+P0DMS8). The assay is described as follows: Selectivity for human adenosine A2B receptor over adenosine A3 receptor. It is filed as protein assay.
The target of assay [4] is T3, Adenosine receptor A3 (Homo sapiens) (UniProt P0DMS8).
T3 sequence (whole entry): T2 sequence (P0DMS8 whole entry)
The assay is described as follows: Inhibition of [3H]PSB11 binding to human recombinant adenosine A3 receptor in CHO cells at >1 uM. Type of assay: cell-based.

The target of assay [5] is T4, Adenosine receptor A1 (Rattus norvegicus, UniProt P25099).
T4 sequence (P25099 whole entry): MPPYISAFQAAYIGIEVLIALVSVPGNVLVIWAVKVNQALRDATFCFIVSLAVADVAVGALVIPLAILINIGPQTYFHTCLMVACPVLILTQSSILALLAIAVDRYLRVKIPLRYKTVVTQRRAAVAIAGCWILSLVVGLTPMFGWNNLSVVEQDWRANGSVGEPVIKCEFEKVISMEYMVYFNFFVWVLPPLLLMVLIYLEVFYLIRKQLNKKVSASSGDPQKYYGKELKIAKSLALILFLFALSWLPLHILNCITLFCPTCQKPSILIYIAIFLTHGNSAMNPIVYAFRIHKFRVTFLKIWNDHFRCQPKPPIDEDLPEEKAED
The assay is described as follows: Displacement of [3H]CCPA from adenosine A1 receptor in rat brain cortical membranes. It is filed as cell membranes, Membrane.

For assay [6], the target named is T5, Adenosine receptor A1 (Homo sapiens, UniProt P30542).
T5 sequence (P30542 whole entry): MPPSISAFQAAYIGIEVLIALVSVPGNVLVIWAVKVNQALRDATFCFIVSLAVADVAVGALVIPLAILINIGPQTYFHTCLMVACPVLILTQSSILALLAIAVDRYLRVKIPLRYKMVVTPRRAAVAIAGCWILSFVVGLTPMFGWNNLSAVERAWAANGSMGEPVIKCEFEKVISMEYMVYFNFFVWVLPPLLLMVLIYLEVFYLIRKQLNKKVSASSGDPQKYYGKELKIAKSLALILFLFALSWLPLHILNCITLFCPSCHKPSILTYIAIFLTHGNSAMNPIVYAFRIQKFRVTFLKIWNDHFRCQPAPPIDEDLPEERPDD
Description: Displacement of [3H]CCPA from human recombinant adenosine A1 receptor expressed in CHO cells. Type of assay: cell-based.

In assay [7] the target is Adenosine receptor A2a (Rattus norvegicus, UniProt P30543). The assay is described as follows: Displacement of [3H]MSX2 from adenosine A2A receptor in rat brain striatal membranes. It is filed as cell membranes, Membrane.
Sequence of Adenosine receptor A2a (Rattus norvegicus, UniProt P30543) (P30543 whole entry): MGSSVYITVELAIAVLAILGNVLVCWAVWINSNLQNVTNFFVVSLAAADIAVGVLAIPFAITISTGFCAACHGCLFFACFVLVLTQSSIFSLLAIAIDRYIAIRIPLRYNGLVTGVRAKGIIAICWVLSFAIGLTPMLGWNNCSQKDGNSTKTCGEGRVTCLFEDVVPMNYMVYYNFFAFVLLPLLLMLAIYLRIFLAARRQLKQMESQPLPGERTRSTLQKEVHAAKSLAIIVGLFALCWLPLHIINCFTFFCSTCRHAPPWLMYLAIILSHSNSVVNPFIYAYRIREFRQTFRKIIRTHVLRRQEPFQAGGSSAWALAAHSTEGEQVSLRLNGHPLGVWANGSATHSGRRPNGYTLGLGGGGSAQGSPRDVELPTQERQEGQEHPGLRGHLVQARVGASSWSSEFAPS
The target of assay [8] is Adenosine receptor A2a (Homo sapiens, UniProt P29274). Description: Displacement of [3H]MSX2 from human recombinant adenosine A2A receptor expressed in CHO cells. Type of assay: cell-based.
Sequence of Adenosine receptor A2a (Homo sapiens, UniProt P29274) (P29274 whole entry): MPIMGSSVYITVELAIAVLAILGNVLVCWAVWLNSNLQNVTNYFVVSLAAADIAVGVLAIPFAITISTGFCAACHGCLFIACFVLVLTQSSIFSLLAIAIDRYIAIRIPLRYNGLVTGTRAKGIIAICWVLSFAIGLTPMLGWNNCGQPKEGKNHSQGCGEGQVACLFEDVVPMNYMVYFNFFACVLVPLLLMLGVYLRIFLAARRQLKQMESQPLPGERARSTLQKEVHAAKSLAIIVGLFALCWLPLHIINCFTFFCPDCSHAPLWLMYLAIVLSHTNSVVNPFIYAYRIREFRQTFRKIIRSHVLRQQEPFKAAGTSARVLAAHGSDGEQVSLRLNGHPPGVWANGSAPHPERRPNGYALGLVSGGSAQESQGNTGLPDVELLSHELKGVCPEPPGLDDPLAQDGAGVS
Assay [9] has as its target T3, Adenosine receptor A3 (Homo sapiens). The assay is described as follows: (§1) Inhibition of [3H]PSB11 binding to human recombinant adenosine A3 receptor in CHO cells at >=10 uM. It is filed as cell-based.
Assay [10] shares this target. Description: Inhibition of [3H]PSB11 binding to human recombinant adenosine A3 receptor in CHO cells at >=1 uM. It is filed as cell-based.
Assay [11] shares this target. Description: Inhibition of [3H]PSB11 binding to human recombinant adenosine A3 receptor in CHO cells at >10 uM. It is filed as cell-based.
Assay [12] deals with T2, Adenosine receptor A3. The assay is described as §1. It is filed as cell-based.
The target of assay [13] is T2, Adenosine receptor A3. Description: Displacement of [125I]AB-MECA from human recombinant adenosine A3 receptor expressed in CHO cells. Type of assay: cell-based.

Regarding `CCCn1c(=O)[nH]c2nc(-c3ccc(S(=O)(=O)N4CCN(Cc5ccccc5)CC4)cc3)[nH]c2c1=O`, the Ki (as a rule, the dissociation constant of the complex between target and ligand, obtained from inhibition or displacement) at Adenosine receptor A2b is 3.6 nM; on Adenosine receptor A3 [1], more than 1000 nM; on Adenosine receptor A1 [5], 260 nM; on Adenosine receptor A1 [6], 2070 nM; on Adenosine receptor A2a [7], 93.7 nM; on Adenosine receptor A2a [8], 484 nM. In addition, the Selectivity ratio in [2] was 574; in assay [3], more than 278. Also, the inhibition (in general, the change of the read-out against control, counted positive when it falls) in assay [4] amounted to 29%.

`Cn1c(=O)c2[nH]c(-c3ccc(S(=O)(=O)NCCO)cc3)nc2n(C)c1=O`: the Ki is 250 nM on Adenosine receptor A2b, not below 10000 nM on Adenosine receptor A3 [1], 98 nM on Adenosine receptor A1 [5] and 347 nM at Adenosine receptor A2a [7].

In the case of `CCCn1c(=O)[nH]c2[nH]c(-c3ccc(S(=O)(=O)NCCO)cc3)nc2c1=O`, the inhibition constant (Ki) at Adenosine receptor A2b is 27.1 nM; at Adenosine receptor A3 [1] it was not below 10000 nM; on Adenosine receptor A1 [5], 45 nM; on Adenosine receptor A2a [7], 287 nM. Also, the inhibition in [9] worked out at 36%.

For the compound `CCCn1c(=O)[nH]c2[nH]c(-c3ccc(S(=O)(=O)NCc4ccccc4)cc3)nc2c1=O`, the Ki is 4.2 nM on Adenosine receptor A2b; not below 1000 nM on Adenosine receptor A3 [1]; 4.6 nM at Adenosine receptor A1 [5]; 54.8 nM at Adenosine receptor A1 [6]; 26.7 nM on Adenosine receptor A2a [7]; 162 nM on Adenosine receptor A2a [8]. Besides, the Selectivity ratio is 13 in assay [2] and more than 200 in assay [3]. Also, in [10], the inhibition was found to be 41%.

Regarding `CC(C)NS(=O)(=O)c1ccc(-c2nc3c(=O)n(C)c(=O)n(C)c3[nH]2)cc1`, the inhibition in assay [11] was 27%.

`CCCn1c(=O)[nH]c2nc(-c3ccc(S(=O)(=O)NCC(=O)O)cc3)[nH]c2c1=O`: the Ki was 101 nM on Adenosine receptor A2b, more than 10000 nM on Adenosine receptor A3 [1], 100 nM at Adenosine receptor A1 [5] and 320 nM at Adenosine receptor A2a [7].

`CCCn1c(=O)[nH]c2[nH]c(-c3ccc(S(=O)(=O)Nc4ccccc4)cc3)nc2c1=O`: the Ki at Adenosine receptor A2b is 31.4 nM; on Adenosine receptor A3 [1], not below 1000 nM; at Adenosine receptor A1 [5], 1.8 nM; at Adenosine receptor A2a [7], 23 nM. The inhibition in [10] came out at 48%.

With `CCCN(CCC)S(=O)(=O)c1ccc(-c2nc3c(=O)n(CCC)c(=O)[nH]c3[nH]2)cc1`, in [4], the inhibition stood at 18%.

With `CCCn1c(=O)[nH]c2[nH]c(-c3ccc(S(=O)(=O)NCCc4ccccc4)cc3)nc2c1=O`, the Ki on Adenosine receptor A2b was 3.62 nM; on Adenosine receptor A3 [1], not below 10000 nM; on Adenosine receptor A1 [5], 10 nM; on Adenosine receptor A1 [6], 183 nM; at Adenosine receptor A2a [7], 297 nM; at Adenosine receptor A2a [8], 769 nM. Besides, the values for the Selectivity ratio in assay [2] and in assay [3] were 50 and more than 2700, respectively. Moreover, the inhibition in [9] came out at 37%.

Turning to `CCCCNS(=O)(=O)c1ccc(-c2nc3c(=O)n(C)c(=O)n(C)c3[nH]2)cc1`, the inhibition in assay [9] came to 43%.

`CC(C)NS(=O)(=O)c1ccc(-c2nc3c([nH]2)c(=O)n(C)c(=O)n3C)cc1`: the Ki was 102 nM on Adenosine receptor A2b, more than 10000 nM at Adenosine receptor A3 [1], 75 nM on Adenosine receptor A1 [5] and 283 nM at Adenosine receptor A2a [7].

As to `Cn1c(=O)c2[nH]c(-c3ccc(S(=O)(=O)NCCc4ccccc4)cc3)nc2n(C)c1=O`, the Ki on Adenosine receptor A2b worked out at 4.48 nM; at Adenosine receptor A3 [1], 1080 nM; at Adenosine receptor A1 [5], 12 nM; on Adenosine receptor A1 [6], 185 nM; on Adenosine receptor A2a [7] it was 113 nM; on Adenosine receptor A2a [8] it was 32.6 nM.

`CCCCNS(=O)(=O)c1ccc(-c2nc3c([nH]2)c(=O)n(C)c(=O)n3C)cc1`: the Ki on Adenosine receptor A2b is 122 nM; at Adenosine receptor A3 [1], not below 10000 nM; at Adenosine receptor A1 [5], 27 nM; at Adenosine receptor A2a [7], 165 nM.

For `CCCN(CCC)S(=O)(=O)c1ccc(-c2nc3[nH]c(=O)n(CCC)c(=O)c3[nH]2)cc1`, the Ki at Adenosine receptor A2b is 53.8 nM; at Adenosine receptor A3 [1], more than 1000 nM; at Adenosine receptor A1 [5], 5.5 nM; at Adenosine receptor A2a [7], 42 nM.

On to `Cn1c(=O)c2nc(-c3ccc(S(=O)(=O)NCCO)cc3)[nH]c2n(C)c1=O`, for which, in assay [9], the inhibition came out at 49%.

In the case of `Cn1c(=O)c2nc(-c3ccc(S(=O)(=O)NCC(=O)O)cc3)[nH]c2n(C)c1=O`, the Ki at Adenosine receptor A2b is 154 nM; on Adenosine receptor A3 [1] it was not below 10000 nM; on Adenosine receptor A1 [5] it was 64 nM; at Adenosine receptor A2a [7], 182 nM. On Adenosine receptor A3 [12], the inhibition was 41%.

For the compound `CCCn1c(=O)[nH]c2nc(-c3ccc(S(=O)(=O)O)cc3)[nH]c2c1=O`, the Ki at Adenosine receptor A3 [1] and at Adenosine receptor A1 [6] was more than 10000 nM in each case.

Turning to `Cn1c(=O)c2[nH]c(-c3ccc(S(=O)(=O)O)cc3)nc2n(C)c1=O`, on Adenosine receptor A3 [13], the Ki came to 5890 nM.

With `CCCn1c(=O)[nH]c2[nH]c(-c3ccc(S(=O)(=O)NCC(=O)O)cc3)nc2c1=O`, the inhibition in [11] was 25%.
